Test results from ChEMBL document CHEMBL3769400, “Synthesis of minoxidil conjugates and their evaluation as HL-60 differentiation agents” (Bioorg Med Chem Lett, 2016).
pIC50: −log10 of the molar value. Active and inactive are the calls of the source. No cut-off for these calls is given here.

Experiments:
[1] = Induction of cell differentiation in human HL60 cells by NBT/MTT assay; type: functional, cell-based; conditions: HL-60
[2] = system: PBMC; experiment: Cytotoxicity against human PBMC cells assessed as cell viability by MTT assay; type: cell-based
[3] = system: HL-60; experiment: Induction of cell differentiation in human HL60 cells assessed as increase in differentiation index at 10 uM measured after 3 days by NBT/MTT assay; type: functional, cell-based
[4] = system: HL-60; experiment: Induction of cell differentiation in human HL60 cells assessed as increase in differentiation index at 10 uM measured after 5 days by NBT/MTT assay; type: functional, cell-based
[5] = system: HL-60; experiment: Induction of cell differentiation in human HL60 cells assessed as irregularity of nuclear and cytoplasmic shape after 3 days at 10 uM by leishmans staining based microscopic analysis; type: functional
[6] = system: HL-60; experiment: Induction of cell differentiation in human HL60 assessed as reduction in cell number after 3 days at 10 uM by leishmans staining based microscopic analysis; type: functional
[7] = system: HL-60; experiment: Induction of cell differentiation in human HL60 cells assessed as condensation of nuclear chromatin after 3 days at 10 uM by leishmans staining based microscopic analysis; type: functional
[8] = system: HL-60; experiment: Induction of cell differentiation in human HL60 cells at 0.1 to 10 uM measured after 5 days by NBT/MTT assay; type: functional, cell-based
[9] = system: HL-60; experiment: Induction of cell differentiation in human HL60 cells at 0.1 to 10 uM measured after 3 days by NBT/MTT assay; type: functional, cell-based
[10] = system: HL-60; experiment: Induction of cell differentiation in human HL60 at 10 uM after 3 days by leishmans staining based microscopic analysis; type: functional
[11] = system: HL-60; experiment: Induction of cell differentiation in human HL60 cells at 10 uM co-administered with MDA measured after 3 days by NBT/MTT assay; type: functional, cell-based
[12] = system: HL-60; experiment: Induction of cell differentiation in human HL60 cells at 10 uM co-administered with DAF measured after 3 days by NBT/MTT assay; type: functional, cell-based

For `NCCCNCCCCNCCCNC(=O)Nc1cc(N2CCCCC2)nc(N)[n+]1[O-].O=C(O)C(F)(F)F.O=C(O)C(F)(F)F.O=C(O)C(F)(F)F`, the pIC50 [1] was 5.52, the Activity [2] was “Toxic” and the Activity [3] was “Active”. For the same compound, the Activity [4] was “Active”.

Work on `NCCCCNC(=O)Nc1cc(N2CCCCC2)nc(N)[n+]1[O-]` yielded a pIC50 [1] of less than 5.00.

For `Nc1ccc(Cc2ccc(NC(=O)Nc3cc(N4CCCCC4)nc(N)[n+]3[O-])cc2)cc1`, the Activity [5] was “Active”, the pIC50 [1] was 5.52 and the Activity [6] was “Active”. For the same compound, the Activity [2] was “Toxic”, the Activity [3] was “Active” and the Activity [4] was “Active”. The Activity [7] was “Active”.

For `COc1ccc(C(NC(=O)Nc2cc(N3CCCCC3)nc(N)[n+]2[O-])c2ccc(OC)cc2)cc1`, the pIC50 [1] was less than 5.00.

With `CCCCNC(=O)Nc1cc(N2CCCCC2)nc(N)[n+]1[O-]` the pIC50 [1] was less than 5.00.

For `CC1=C(/C=C/C(C)=C/C=C/C(C)=C/C(=O)O)C(C)(C)CCC1`, the Activity [8] was “Active” and the Activity [9] was “Active”.

With `Nc1ccc2c(c1)Cc1cc(N)ccc1-2` the Activity [3] was “inactive”.

In the case of `Nc1nc(N2CCCCC2)cc(NC(=O)NCc2ccccc2)[n+]1[O-]`, the pIC50 [1] was less than 5.00.

With `Nc1ccc2c(c1)Cc1cc(NC(=O)Nc3cc(N4CCCCC4)nc(N)[n+]3[O-])ccc1-2` the Activity [5] was “Active”, the pIC50 [1] was 5.52 and the Activity [6] was “Active”. The Activity [2] was “Toxic”, the Activity [3] was “Active” and the Activity [4] was “Active”. The Activity [7] was “Active”.

In the case of `Nc1ccc(Cc2ccc(N)cc2)cc1`, the Activity [3] was “inactive” and the Activity [10] was “inactive”.

For `Nc1cc(N2CCCCC2)nc(N)[n+]1[O-]` [MINOXIDIL], the pIC50 [1] was less than 5.00, the Activity [11] was “inactive” and the Activity [12] was “inactive”. The Activity [10] was “inactive”.

In the case of `N#CCCNC(=O)Nc1cc(N2CCCCC2)nc(N)[n+]1[O-]`, the pIC50 [1] was less than 5.00.

For `Nc1nc(N2CCCCC2)cc(NC(=O)NC(c2ccccc2)c2ccccc2)[n+]1[O-]`, the pIC50 [1] was 5.52, the Activity [2] was “Toxic” and the Activity [3] was “Active”. The Activity [4] was “Active”.

For `CCCCCCCCCCCCCC(=O)O[C@@H]1[C@@H](C)[C@@]2(O)[C@@H](C=C(CO)C[C@]3(O)C(=O)C(C)=C[C@@H]23)[C@@H]2C(C)(C)[C@]12OC(C)=O`, the Activity [10] was “inactive”.

In the case of `NCCCCCCNC(=O)Nc1cc(N2CCCCC2)nc(N)[n+]1[O-].O=C(O)C(F)(F)F`, the Activity [5] was “Active”, the pIC50 [1] was 5.48 and the Activity [6] was “Active”. For the same compound, the Activity [8] was “inactive”, the Activity [2] was “Toxic” and the Activity [7] was “Active”. For the same compound, the Activity [9] was “Active”.
